Test results: PubChem BioAssay (NCI)
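Following 48 hours of exposure in 96-well plates, responses at five concentrations were used to interpolate endpoints linearly. TGI denotes the concentration required for complete inhibition of growth.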

Key:
Test in all cases: NCI-60 cell line screen, 48 h
A498 renal = system: A498 renal
A549 NSCLC = system: A549 NSCLC
CCRF-CEM leukemia = system: CCRF-CEM leukemia
DMS 273 small cell lung = system: DMS 273 small cell lung
EKVX NSCLC = system: EKVX NSCLC
HL-60(TB) leukemia = system: HL-60(TB) leukemia
HOP-62 NSCLC = system: HOP-62 NSCLC
HOP-92 NSCLC = system: HOP-92 NSCLC
HT29 colon = system: HT29 colon
IGROV1 ovarian = system: IGROV1 ovarian
K-562 leukemia = system: K-562 leukemia
KM12 colon = system: KM12 colon
M14 melanoma = system: M14 melanoma
MOLT-4 leukemia = system: MOLT-4 leukemia
NCI-H226 lung = system: NCI-H226 lung
NCI-H23 lung = system: NCI-H23 lung
NCI-H460 lung = system: NCI-H460 lung
NCI-H522 lung = system: NCI-H522 lung
OVCAR-5 ovarian = system: OVCAR-5 ovarian
RXF 393 renal = system: RXF 393 renal
SF-268 CNS = system: SF-268 CNS
SK-MEL-28 melanoma = system: SK-MEL-28 melanoma
SK-OV-3 ovarian = system: SK-OV-3 ovarian
SNB-19 CNS = system: SNB-19 CNS
SNB-78 CNS = system: SNB-78 CNS
SR leukemia = system: SR leukemia
TK-10 renal = system: TK-10 renal
U251 CNS = system: U251 CNS
UACC-62 melanoma = system: UACC-62 melanoma
UO-31 renal = system: UO-31 renal
786-0 renal = system: 786-0 renal
ACHN renal = system: ACHN renal
CAKI-1 renal = system: CAKI-1 renal
COLO 205 colon = system: COLO 205 colon
DLD-1 colon = system: DLD-1 colon
HCC-2998 colon = system: HCC-2998 colon
HCT-116 colon = system: HCT-116 colon
HCT-15 colon = system: HCT-15 colon
HOP-18 NSCLC = system: HOP-18 NSCLC
KM20L2 colon = system: KM20L2 colon
LOX IMVI melanoma = system: LOX IMVI melanoma
LXFL 529 NSCLC = system: LXFL 529 NSCLC
M19-MEL melanoma = system: M19-MEL melanoma
MALME-3M melanoma = system: MALME-3M melanoma
OVCAR-3 ovarian = system: OVCAR-3 ovarian
OVCAR-4 ovarian = system: OVCAR-4 ovarian
OVCAR-8 ovarian = system: OVCAR-8 ovarian
RPMI-8226 leukemia = system: RPMI-8226 leukemia
SF-295 CNS = system: SF-295 CNS
SF-539 CNS = system: SF-539 CNS
SK-MEL-2 melanoma = system: SK-MEL-2 melanoma
SK-MEL-5 melanoma = system: SK-MEL-5 melanoma
SN12C renal = system: SN12C renal
SNB-75 CNS = system: SNB-75 CNS
SW-620 colon = system: SW-620 colon
UACC-257 melanoma = system: UACC-257 melanoma

Structure (SMILES): COC(=O)CN1CCSC1=NC#N
- TGI (A498 renal): > 100 µM
- TGI (A549 NSCLC): > 100 µM
- TGI (CCRF-CEM leukemia): > 100 µM
- TGI (DMS 273 small cell lung): > 100 µM
- TGI (EKVX NSCLC): > 100 µM
- TGI (HL-60(TB) leukemia): > 100 µM
- TGI (HOP-62 NSCLC): > 100 µM
- TGI (HOP-92 NSCLC): > 100 µM
- TGI (HT29 colon): > 100 µM
- TGI (IGROV1 ovarian): > 100 µM
- TGI (K-562 leukemia): > 100 µM
- TGI (KM12 colon): > 100 µM
- TGI (M14 melanoma): > 100 µM
- TGI (MOLT-4 leukemia): > 100 µM
- TGI (NCI-H226 lung): > 100 µM
- TGI (NCI-H23 lung): > 100 µM
- TGI (NCI-H460 lung): > 100 µM
- TGI (NCI-H522 lung): > 100 µM
- TGI (OVCAR-5 ovarian): > 100 µM
- TGI (RXF 393 renal): > 100 µM
- TGI (SF-268 CNS): > 100 µM
- TGI (SK-MEL-28 melanoma): > 100 µM
- TGI (SK-OV-3 ovarian): > 100 µM
- TGI (SNB-19 CNS): > 100 µM
- TGI (SNB-78 CNS): > 100 µM
- TGI (SR leukemia): > 100 µM
- TGI (TK-10 renal): > 100 µM
- TGI (U251 CNS): > 100 µM
- TGI (UACC-62 melanoma): > 100 µM
- TGI (UO-31 renal): > 100 µM

Structure (SMILES): O=C(c1ccccc1)c1nnc(C(=O)c2ccccc2)nn1
- TGI (786-0 renal): > 344 µM
- TGI (A549 NSCLC): > 344 µM
- TGI (ACHN renal): > 344 µM
- TGI (CAKI-1 renal): > 344 µM
- TGI (CCRF-CEM leukemia): > 344 µM
- TGI (COLO 205 colon): > 344 µM
- TGI (DLD-1 colon): > 344 µM
- TGI (DMS 273 small cell lung): > 344 µM
- TGI (EKVX NSCLC): > 344 µM
- TGI (HCC-2998 colon): > 344 µM
- TGI (HCT-116 colon): > 344 µM
- TGI (HCT-15 colon): > 344 µM
- TGI (HL-60(TB) leukemia): > 344 µM
- TGI (HOP-18 NSCLC): > 344 µM
- TGI (HOP-62 NSCLC): > 344 µM
- TGI (HOP-92 NSCLC): > 344 µM
- TGI (HT29 colon): > 344 µM
- TGI (IGROV1 ovarian): > 344 µM
- TGI (K-562 leukemia): > 344 µM
- TGI (KM12 colon): > 344 µM
- TGI (KM20L2 colon): > 344 µM
- TGI (LOX IMVI melanoma): > 344 µM
- TGI (LXFL 529 NSCLC): > 344 µM
- TGI (M14 melanoma): > 344 µM
- TGI (M19-MEL melanoma): > 344 µM
- TGI (MALME-3M melanoma): > 344 µM
- TGI (MOLT-4 leukemia): > 344 µM
- TGI (NCI-H226 lung): > 344 µM
- TGI (NCI-H23 lung): > 344 µM
- TGI (NCI-H460 lung): > 344 µM
- TGI (NCI-H522 lung): > 344 µM
- TGI (OVCAR-3 ovarian): > 344 µM
- TGI (OVCAR-4 ovarian): > 344 µM
- TGI (OVCAR-5 ovarian): > 344 µM
- TGI (OVCAR-8 ovarian): > 344 µM
- TGI (RPMI-8226 leukemia): > 344 µM
- TGI (RXF 393 renal): 261 µM
- TGI (SF-268 CNS): > 344 µM
- TGI (SF-295 CNS): > 344 µM
- TGI (SF-539 CNS): > 344 µM
- TGI (SK-MEL-2 melanoma): > 344 µM
- TGI (SK-MEL-28 melanoma): > 344 µM
- TGI (SK-MEL-5 melanoma): > 344 µM
- TGI (SK-OV-3 ovarian): > 344 µM
- TGI (SN12C renal): > 344 µM
- TGI (SNB-19 CNS): > 344 µM
- TGI (SNB-75 CNS): > 344 µM
- TGI (SNB-78 CNS): > 344 µM
- TGI (SR leukemia): 128 µM
- TGI (SW-620 colon): > 344 µM
- TGI (TK-10 renal): > 344 µM
- TGI (U251 CNS): > 344 µM
- TGI (UACC-257 melanoma): > 344 µM
- TGI (UACC-62 melanoma): > 344 µM
- TGI (UO-31 renal): > 344 µM
